According to patent US9096591B2, “Tetracyclic compounds” (Medivation Technologies, Inc., priority 2007, dated 2015):
Several values for one entry are separate records, joined by “and”; a condition that tells them apart may be missing. Identical values can stand only once. Like-named read-outs stand apart in the source and are kept apart here.

Assays:
[1] = target: T1, human recombinant histamine H1 receptor (Homo sapiens, UniProt P35367); assay: Histamine H1 radioligand binding ([3H]Pyrilamine); conditions: for inhibition at 0.1 µM: 0.1 μM compound; for inhibition at 0.03 µM: 0.03 μM compound
T1 construct: expressed in transfected cells; host or cells: CHO cells
Experimental: To evaluate in radioligand binding assays the activity of compounds of the invention, human recombinant histamine H1 receptor expressed in Chinese hamster ovary (CHO) cells (De Backer M D et al. Biochem. Biophys. Res Comm. 197(3):1601, 1993) in a modified Tris-HCl buffer (50 mM Tris-HCl, pH 7.4, 2 mM MgCl2, 100 mM NaCl, 250 mM Sucrose) were used. […] Non-specific binding was estimated in the presence of 1 μM pyrilamine. Receptor proteins were filtered and washed, the filters were then counted to determine [^3H]pyrilamine specifically bound. […] Biochemical assay results are presented as the percent inhibition of specific binding in Table 5.
To evaluate in radioligand binding assays the activity of compounds of the invention, human recombinant histamine H1 receptor expressed in Chinese hamster ovary (CHO) cells (De Backer, M. D. et al., Biochem. Biophys. Res. Comm. 197(3):1601, 1993) in a modified Tris-HCl buffer (50 mM Tris-HCl, pH 7.4, 2 mM MgCl2, 100 mM NaCl, 250 mM Sucrose) was used. […] Non-specific binding was estimated in the presence of 1 μM pyrilamine. Receptor proteins were filtered and washed, the filters were then counted to determine [^3H]Pyrilamine specifically bound. Compounds were screened at 1 μM, using 1% DMSO as vehicle. Biochemical assay results are presented as the percent inhibition of specific binding in Table 6.

[2] = target: T2, human recombinant histamine H2 receptor (Homo sapiens, UniProt P25021); assay: Histamine H2 radioligand binding ([125I]Aminopotentidine); conditions: for inhibition at 0.3 µM: 0.3 μM compound
T2 construct: expressed in transfected cells; host or cells: CHO-K1 cells
Experimental: Non-specific binding was estimated in the presence of 3 μM Tiotidine. […] Biochemical assay results are presented as the percent inhibition of specific binding in Table 5.
Non-specific binding was estimated in the presence of 3 μM Tiotidine. […] Compounds were screened at 1 μM, using 1% DMSO as vehicle. Biochemical assay results are presented as the percent inhibition of specific binding in Table 6.

[3] = target: T3, human recombinant dopamine D2L receptor (Homo sapiens, UniProt P14416); assay: Dopamine D2L radioligand binding ([3H]Spiperone); conditions: percent inhibition of specific binding
T3 construct: expressed in transfected cells; host or cells: CHO cells
Experimental: Non-specific binding was estimated in the presence of 10 μM Haloperidol. Receptor proteins were filtered and washed, the filters were then counted to determine [^3H]Spiperone specifically bound. […] Biochemical assay results are presented as the percent inhibition of specific binding in Table 6.

mice = assay: recognition test of new location of a known object (spatial memory); type: in vivo; conditions: for effect of the dose on exploration time / memory (in words) / time exploring the object in a new location, % of the total time / time exploring the object in the known position, % of the total time / overall effect on memory (in words): mice; for overall effect on memory (in words): doses 0.05-1 mg/kg
[4] = test system: synaptosomes of cortex of rat brain; assay: Glutamate-induced 45Ca2+ uptake into synaptosomes; type: biochemical, Wistar rats; conditions: for % Ca of control (control-100%), glutamate-induced 45Ca2+ uptake into synaptosomes: rat cortex synaptosomes
Experimental: Synaptosomes were obtained from cerebral cortex of newborn (9-10 days) Wistar rats using standard Hajos method. The brain was homogenized with 10 volumes of cooled 0.32 M sucrose at 900 rpm. The homogenate was centrifuged at 1500 g for 10 min. and the resulted supernatant was centrifuged at 10000 g for 20 min. The radioactive label was accumulated by suspension of the synaptosomal P2-fraction in the incubation buffer A having the following composition: 132 mM NaCl, 5 mM KCl, 5 mM HEPES, 10 mM glucose, pH 7.4 (protein concentration of approximately 1.5-2 mg/ml). The mixture was further incubated for 5 min with 200 μM glutamate at 37° C. and then ^45Ca^2+ uptake was stopped by filtration through GF/B filters (Whatman, England) followed by three washes with cold buffer B (145 mM KCl, 10 mM Tris, 5.4 mM Trilon B, pH 7.4). The radioactivity probes were analyzed by fluid scintillation beta-analyzer (TriCarb, Perkin Elmer). All tests were performed in three parallel trials in 2-3 independent experiments. The amount of ^45Ca^2+ uptake was estimated by calculating the difference of radioactive label during the stimulation with glutamate and without the stimulation with agonist.
Specific ^45Ca^2+ uptake was estimated using the following equation: K(43/21)=[(Ca4−Ca3)/(Ca2−Ca1)]100%, where
Ca1—^45Ca^2+ uptake for the Control (without glutamate and the compound tested),
[…] glutamate-induced ^45Ca^2+ uptake (glutamate only),
Ca3—^45Ca^2+ uptake in the presence of the compound tested (without glutamate),
Ca4—^45Ca^2+ uptake in the presence of glutamate and the testing compound.
Statistical analysis of the results was performed using Student's t-test.

[5] = 1 μM compound, […] [3H]Pyrilamine
[6] = 1 μM compound, 0.1 nM [125I]Aminopotentidine, read-out: Histamine Binding H2, percent inhibition of specific binding
[7] = 1 μM compound, […] [3H]Pyrilamine, read-out: Histamine Binding H1, percent inhibition of specific binding
[8] = […] [3H]Pyrilamine, read-out: Histamine Binding H1, percent inhibition of specific binding
[9] = percent inhibition of specific binding, screened at 1 μM, read-out: Inhibition of ligand binding, Hist. H1
[10] = 0.1 nM [125I]Aminopotentidine, read-out: Histamine Binding H2, percent inhibition of specific binding
[11] = percent inhibition of specific binding, screened at 1 μM, read-out: Inhibition of ligand binding, Hist. H2

T1 sequence (P35367 whole entry): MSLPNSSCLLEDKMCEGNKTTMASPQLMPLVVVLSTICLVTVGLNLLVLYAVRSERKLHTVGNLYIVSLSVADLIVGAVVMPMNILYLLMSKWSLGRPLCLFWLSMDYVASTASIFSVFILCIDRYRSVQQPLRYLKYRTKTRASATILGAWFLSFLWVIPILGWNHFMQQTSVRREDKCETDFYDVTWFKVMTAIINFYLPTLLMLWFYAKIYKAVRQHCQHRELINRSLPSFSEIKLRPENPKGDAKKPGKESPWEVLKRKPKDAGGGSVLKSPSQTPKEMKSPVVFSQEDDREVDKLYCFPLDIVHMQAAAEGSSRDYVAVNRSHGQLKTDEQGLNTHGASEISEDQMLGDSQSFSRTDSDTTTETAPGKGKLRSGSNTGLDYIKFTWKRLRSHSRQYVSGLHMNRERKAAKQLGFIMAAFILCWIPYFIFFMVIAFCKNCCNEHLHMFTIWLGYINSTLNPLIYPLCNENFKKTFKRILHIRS
T2 sequence (P25021 whole entry): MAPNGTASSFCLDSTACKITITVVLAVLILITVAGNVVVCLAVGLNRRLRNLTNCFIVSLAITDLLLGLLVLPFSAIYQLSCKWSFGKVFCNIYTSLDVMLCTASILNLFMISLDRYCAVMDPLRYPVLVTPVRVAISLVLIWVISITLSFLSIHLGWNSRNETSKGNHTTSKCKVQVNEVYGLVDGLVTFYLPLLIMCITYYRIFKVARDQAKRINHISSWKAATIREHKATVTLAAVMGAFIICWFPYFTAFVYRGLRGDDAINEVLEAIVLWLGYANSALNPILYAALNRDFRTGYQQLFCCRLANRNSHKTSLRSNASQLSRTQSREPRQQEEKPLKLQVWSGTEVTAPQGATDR
T3 sequence (P14416 whole entry): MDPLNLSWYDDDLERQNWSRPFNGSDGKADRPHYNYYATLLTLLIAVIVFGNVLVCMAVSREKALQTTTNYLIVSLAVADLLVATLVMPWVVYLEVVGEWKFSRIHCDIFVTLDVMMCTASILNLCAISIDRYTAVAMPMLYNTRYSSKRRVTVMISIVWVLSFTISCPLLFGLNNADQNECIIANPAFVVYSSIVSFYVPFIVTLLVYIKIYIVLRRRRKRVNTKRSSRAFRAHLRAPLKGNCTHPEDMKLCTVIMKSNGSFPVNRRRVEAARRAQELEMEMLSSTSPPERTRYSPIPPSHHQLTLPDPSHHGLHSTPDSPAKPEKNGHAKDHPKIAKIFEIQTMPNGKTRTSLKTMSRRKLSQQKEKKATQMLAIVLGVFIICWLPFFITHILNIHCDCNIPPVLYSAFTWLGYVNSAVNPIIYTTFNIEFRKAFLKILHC

CN1CCc2c(c3cc(Cl)ccc3n2CCc2n[nH]c(=S)n2C)C1(C)C [Compound 218]
Histamine Binding H1, percent inhibition of specific binding [1, 5]: 80%
inhibition at 1 µM [2, 6]: 34%

CN1Cc2c(n(CCc3noc(-c4ccc(Cl)cc4)n3)c3ccc(Cl)cc23)CC12CC2 [Compound 242]
inhibition at 1 µM [1, 7]: 94%
inhibition at 1 µM [2, 6]: 87%

Cc1ccc2c(c1)c1c(n2CCC(=O)N2CCC(NC(=O)OC(C)(C)C)CC2)CCN(C)C1 [Compound 226, tert-butyl 1-(3-(1,2,3,4-tetrahydro-2,8-dimethylpyrido[4,3-b]indol-5-yl)propanoyl)piperidin-4-ylcarbamate]
inhibition at 1 µM [1, 7]: 87%
inhibition at 1 µM [2, 6]: 96%

CN1Cc2c(n(CCc3n[nH]c(=S)n3C)c3ccc(C(F)(F)F)cc23)CC1(C)C [Compound 219]
inhibition at 1 µM [1, 7]: 89%
inhibition at 1 µM [2, 6]: 71%

CN1CCc2c(c3cc(Cl)ccc3n2C[C@@](C)(O)c2ccc(F)cc2)C1 [Compound 110]
Inhibition of ligand binding, Dop. D2L [3]: 35%

CN1CCc2c(c3cc(Cl)ccc3n2CCc2n[nH]c(=S)n2C)C1(C)C [Compound 220]
Histamine Binding H1, percent inhibition of specific binding [1, 5]: 3%
Histamine Binding H2, percent inhibition of specific binding ([2]; 1 μM compound, 0.1 nM [125I]Aminopotentidine): 22%

FC(F)(F)c1ccc2c(c1)c1c(n2CCc2noc(-c3ccccc3)n2)CCN(C2CC2)C1 [Compound 222]
inhibition at 0.01 µM ([1]; 10 nM (0.01 μM) compound, […] [3H]Pyrilamine, read-out: Histamine Binding H1, percent inhibition of specific binding): 85%
inhibition at 0.1 µM [1, 8]: 101%
inhibition at 1 µM [1, 7]: 103%
inhibition at 0.1 µM ([2]; 0.1 μM compound, 0.1 nM [125I]Aminopotentidine, read-out: Histamine Binding H2, percent inhibition of specific binding): 89%
inhibition at 1 µM [2, 6]: 98%

Cc1ccc2c(c1)c1c(n2CCc2ccccc2)CCN(C2CC2)C1 [Compound 35, 2-cyclopropyl-2,3,4,5-tetrahydro-8-methyl-5-phenethyl-1H-pyrido[4,3-b]indole]
inhibition at 1 µM [1, 7]: 99%
inhibition at 1 µM [2, 6]: 54%

CCN1CCc2c(c3cc(C)ccc3n2CCc2ccc(C)cc2)C1 [Compound 26]
inhibition at 0.03 µM [1, 8]: 67%
inhibition at 0.1 µM [1, 8]: 81%
inhibition at 1 µM [1, 7]: 96%
inhibition at 1 µM [1, 9]: 96%
inhibition at 0.3 µM [2, 10]: 34%
inhibition at 1 µM [2, 6]: 73%
inhibition at 1 µM [2, 11]: 73%

COc1ccc2c(c1)c1c(n2CCc2noc(-c3ccccc3)n2)CCN(C)C1 [Compound C4-5]
Influence on memory in the test recognition new localization of known object (mice; Dose of Compound 0.05 mg/kg): −
Influence on memory in the test recognition new localization of known object (mice; Dose of Compound 0.1 mg/kg): −
Influence on memory in the test recognition new localization of known object (mice; Dose of Compound 0.5 mg/kg): +
Influence on memory in the test recognition new localization of known object (mice; Dose of Compound 1.0 mg/kg): +
activity on memory: times weaker than dimebon (mice; comparison of effective doses): approximately 10 times
effect of the dose on exploration time / memory (in words) (mice; dose 0.05 mg/kg): not effective
effect of the dose on exploration time / memory (in words) (mice; dose 0.1 mg/kg): not effective
time exploring the object in a new location, % of the total time (mice; dose 0.5 mg/kg): 56.2±7.6%
time exploring the object in the known position, % of the total time (mice; dose 0.5 mg/kg): 43.8±7.6%
time exploring the object in a new location, % of the total time (mice; dose 1 mg/kg): 60.6±8.4%
time exploring the object in the known position, % of the total time (mice; dose 1 mg/kg): 39.4±8.4%
overall effect on memory (in words) (mice): stimulated memory
concentration at which glutamate-induced 45Ca2+ uptake into synaptosomes was inhibited [4]: 1 to 25 µM
inhibition of glutamate-induced 45Ca2+ uptake into synaptosomes ([4]; 10 μM (maximal inhibition)): 40%
glutamate-induced 45Ca2+ uptake into synaptosomes of rat cortex, % Ca of control (control-100%) ([4]; C 0.1 μM): 136.4% and 136.4 ± 11.8%
glutamate-induced 45Ca2+ uptake into synaptosomes of rat cortex, % Ca of control (control-100%) ([4]; C 0.5 μM): 124.6 ± 13.7%
glutamate-induced 45Ca2+ uptake into synaptosomes of rat cortex, % Ca of control (control-100%) ([4]; C 1.0 μM): 99.8 ± 0.1%
glutamate-induced 45Ca2+ uptake into synaptosomes of rat cortex, % Ca of control (control-100%) ([4]; C 5.0 μM): 84.2 ± 0.7%
glutamate-induced 45Ca2+ uptake into synaptosomes of rat cortex, % Ca of control (control-100%) ([4]; C 10 μM): 59.9 ± 0.2%
glutamate-induced 45Ca2+ uptake into synaptosomes of rat cortex, % Ca of control (control-100%) ([4]; C 25 μM): 98.6 ± 9.4%
glutamate-induced 45Ca2+ uptake into synaptosomes of rat cortex, % Ca of control (control-100%) ([4]; C 50 μM): 111.7 ± 11.2%
glutamate-induced 45Ca2+ uptake into synaptosomes of rat cortex, % Ca of control (control-100%) ([4]; C 100 μM): 148.4% and 148.4 ± 7.3%

CCOC(=O)N1CCc2c(c3cc(C)ccc3n2CCc2cccnc2)C1 [Compound 217]
inhibition at 1 µM [1, 7]: -4%
inhibition at 1 µM [2, 6]: 13%

CCN1CCc2c(c3cc(C)ccc3n2CCc2ccccc2)C1 [Compound 37]
inhibition at 0.03 µM [1, 8]: 59%
inhibition at 0.1 µM [1, 8]: 78%
inhibition at 1 µM [1, 7]: 101%
inhibition at 1 µM [1, 9]: 101%
inhibition at 0.3 µM [2, 10]: 22%
inhibition at 1 µM [2, 6]: 53%
inhibition at 1 µM [2, 11]: 53%

CN1CCc2c(c3cc(F)ccc3n2CCc2noc(-c3ccccc3)n2)C1 [Compound C4-7]
Influence on memory in the test recognition new localization of known object (mice; Dose of Compound 0.05 mg/kg): −
Influence on memory in the test recognition new localization of known object (mice; Dose of Compound 0.1 mg/kg): +
Influence on memory in the test recognition new localization of known object (mice; Dose of Compound 0.5 mg/kg): −
Influence on memory in the test recognition new localization of known object (mice; Dose of Compound 1.0 mg/kg): −
effect of the dose on exploration time / memory (in words) (mice; dose 0.05 mg/kg): not effective
time exploring the object in a new location, % of the total time (mice; dose 0.1 mg/kg): 63.4±10.4%
time exploring the object in the known position, % of the total time (mice; dose 0.1 mg/kg): 36.6±10.4%
effect of the dose on exploration time / memory (in words) (mice; dose 0.5 mg/kg): not effective
effect of the dose on exploration time / memory (in words) (mice; dose 1 mg/kg): not effective
overall effect on memory (in words) (mice): stimulated memory
concentration at which glutamate-induced 45Ca2+ uptake into synaptosomes was not affected [4]: 0.1 to 10 µM
glutamate-induced 45Ca2+ uptake into synaptosomes of rat cortex, % of control ([4]; 50-100 μM): ~128%
% Ca of control (control-100%), glutamate-induced 45Ca2+ uptake into synaptosomes ([4]; compound 0.1 μM): 97.2 ± 5.5%
% Ca of control (control-100%), glutamate-induced 45Ca2+ uptake into synaptosomes ([4]; compound 0.5 μM): 87.6 ± 3.9%
% Ca of control (control-100%), glutamate-induced 45Ca2+ uptake into synaptosomes ([4]; compound 1 μM): 105.3 ± 2.8%
% Ca of control (control-100%), glutamate-induced 45Ca2+ uptake into synaptosomes ([4]; compound 5 μM): 109.2 ± 10%
% Ca of control (control-100%), glutamate-induced 45Ca2+ uptake into synaptosomes ([4]; compound 10 μM): 101.6 ± 7.8%
% Ca of control (control-100%), glutamate-induced 45Ca2+ uptake into synaptosomes ([4]; compound 50 μM): 128.3 ± 8.1%
% Ca of control (control-100%), glutamate-induced 45Ca2+ uptake into synaptosomes ([4]; compound 100 μM): 123.6 ± 4.9%

Cc1ccc(C(O)Cn2c3c(c4ccccc42)CN(C)CC3)cc1 (stereo not drawn) [Compound 7]
inhibition at 1 µM [1, 9]: 47%
inhibition at 1 µM [2, 11]: 58%

Cc1ccc2c(c1)c1c(n2CCc2ccc(C(=O)O)nc2)CCN(C)C1=O [Compound 241]
inhibition at 1 µM ([1]; read-out: Histamine Binding H1, percent inhibition of specific binding): 19%
inhibition at 1 µM ([2]; read-out: Histamine Binding H2, percent inhibition of specific binding): 11%

CN1Cc2c(n(CCc3noc(-c4ccccc4)n3)c3ccc(Cl)cc23)CC12CC2 [Compound 223]
inhibition at 1 µM [1, 7]: 100%
inhibition at 1 µM [2, 6]: 94%
